pIC50: −log10 of the molar value. Where two headings read alike, the source gives them in different places. One block for each compound: values may come before it.
Biological target: T1, P2X7 receptor (Homo sapiens, UniProt Q99572)
T1 construct: host or cells: SH-SY5Y
T1 sequence (Q99572 1-595): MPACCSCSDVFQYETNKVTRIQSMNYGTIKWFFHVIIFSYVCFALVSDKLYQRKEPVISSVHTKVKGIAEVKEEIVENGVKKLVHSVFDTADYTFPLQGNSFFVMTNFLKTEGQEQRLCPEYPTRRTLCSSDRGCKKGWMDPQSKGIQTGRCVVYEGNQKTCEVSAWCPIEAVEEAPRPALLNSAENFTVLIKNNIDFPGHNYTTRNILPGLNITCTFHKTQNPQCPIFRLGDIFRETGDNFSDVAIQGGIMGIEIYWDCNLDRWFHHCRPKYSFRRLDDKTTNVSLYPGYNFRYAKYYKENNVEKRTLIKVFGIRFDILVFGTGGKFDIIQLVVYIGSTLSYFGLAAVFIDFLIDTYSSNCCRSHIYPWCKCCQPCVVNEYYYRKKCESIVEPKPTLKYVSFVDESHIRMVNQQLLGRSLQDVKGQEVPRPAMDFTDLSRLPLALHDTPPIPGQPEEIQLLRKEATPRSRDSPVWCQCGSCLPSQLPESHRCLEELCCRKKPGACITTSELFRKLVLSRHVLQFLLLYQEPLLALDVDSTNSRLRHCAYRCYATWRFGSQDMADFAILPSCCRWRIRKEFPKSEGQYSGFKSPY
Assay: P2X7 calcium mobilization assay, high throughput, antagonist activity (Example 4A)
Assay type: cell-based
Conditions: read-out: IC50
Summary of the method: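 Antagonism was measured as calcium mobilization on FLIPR^TETRA after a 1 h room-temperature compound preincubation of dye-loaded cells. Baseline from no-agonist wells was subtracted from each well's maximum RFU.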

[1] = 50% decrease in the fluorescence response of cells exposed to 80 μM of 2′(3′)-O-(4-benzoyl-benzoyl)adenosine 5′-triphosphate, Example 4A
[2] = 50% decrease in the fluorescence response of cells exposed to 80 μM 2′(3′)-O-(4-benzoyl-benzoyl)adenosine 5′-triphosphate, Example 4A
[3] = 50% decrease in the fluorescence response of cells exposed to 80 μM of 2′(3′)-O-(4-benzoyl-benzoyl)adenosine 5′-triphosphate, determined as in Example 4A
[4] = fluorescence response of cells exposed to 80 μM 2′(3′)-O-(4-benzoyl-benzoyl)adenosine 5′-triphosphate, Example 4A

pIC50 [1]: > 5.70
SMILES: CC(C)CC(CNC(=O)c1cccc2nc(CN3CCOCC3)cn12)c1ccccc1 (stereo not shown) [Compound 688, N-(4-methyl-2-phenylpentyl)-2-(morpholin-4-ylmethyl)imidazo[1,2-a]pyridine-5-carboxamide]

pIC50 [2]: > 5.70
SMILES: CNC1CCN(C(=O)c2cn3c(C(=O)NCC45CC6CC(CC(C6)C4)C5)cccc3n2)C1 (stereo not shown) [Compound 611, N-(adamantan-1-ylmethyl)-2-{[3-(methylamino)pyrrolidin-1-yl]carbonyl}imidazo[1,2-a]pyridine-5-carboxamide]

pIC50 [2]: > 5.70
SMILES: CC(C)(CO)NC(=O)c1cn2c(NC(=O)CC34CC5CC(CC(C5)C3)C4)cccc2n1 [Compound 437, 5-[(adamantan-1-ylacetyl)amino]-N-(2-hydroxy-1,1-dimethylethyl)imidazo [1,2-a]pyridine-2-carboxamide]

pIC50 [3]: > 5.70
SMILES: O=C(NCC12CC3CC(CC(C3)C1)C2)c1cccc2nc(C(CC3CC3)C(=O)O)cn12 (stereo not shown) [Compound 1002, 2-{5-[(adamantan-1-ylmethyl)carbamoyl]imidazo[1,2-a]pyridin-2-yl}-3-cyclopropylpropanoic acid]

pIC50 [3]: > 5.70
SMILES: CC(C)CC(CNC(=O)c1cccc2nc(C(Cc3ccccc3)C(=O)O)cn12)c1ccc(Cl)cc1 (stereo not shown) [Compound 939, 2-(5-{[2-(4-chlorophenyl)-4-methylpentyl]carbamoyl}imidazo[1,2-a]pyridin-2-yl)-3-phenylpropanoic acid]

pIC50 [2]: > 5.70
SMILES: C[C@@H]1CN(C(=O)c2cn3c(C(=O)NCC45CC6CC(CC(C6)C4)C5)cccc3n2)CCN1 [Compound 604, N-(adamantan-1-ylmethyl)-2-{[(3R)-3-methylpiperazin-1-yl]carbonyl}imidazo[1,2-a]pyridine-5-carboxamide]

pIC50 [1]: > 5.70
SMILES: CN(C)CCN(C(=O)c1cn2c(C(=O)NCC34CC5CC(CC(C5)C3)C4)cccc2n1)C1CCNCC1(C)C (stereo not shown) [Compound 620, 5-N-(adamantan-1-ylmethyl)-2-N-[2-(dimethylamino)ethyl]-2-N-(3,3-dimethylpiperidin-4-yl)imidazo[1,2-a]pyridine-2,5-dicarboxamide]

pIC50 (SH-SY5Y cells, 50% decrease in fluorescence response to 80 μM BzATP): > 5.70
SMILES: CCN(C)C(=O)Cc1cn2c(C(=O)NCC34CC5CC(CC(C5)C3)C4)cccc2n1 [Compound 168, N-(adamantan-1-ylmethyl)-2-{2-[ethyl(methyl)amino]-2-oxoethyl}imidazo[1,2-a]pyridine-5-carboxamide]

pIC50 [1]: > 5.70
SMILES: COc1ccc(CC(C(=O)O)c2cn3c(C(=O)NCC45CC6CC(CC(C6)C4)C5)cccc3n2)cc1 (stereo not shown) [Compound 805, 2-{5-[(adamantan-1-ylmethyl)carbamoyl]imidazo[1,2-a]pyridin-2-yl}-3-(4-methoxyphenyl) propanoic acid]

pIC50 [4]: > 5.70
SMILES: C[C@@H]1CNCCN1C(=O)c1cn2c(C(=O)NC[C@@H]3CC[C@H]4C[C@@H]3C4(C)C)cccc2n1 [Compound 305, N-{[(1S,2R,5S)-6,6-dimethylbicyclo[3.1.1]hept-2-yl]methyl}-2-{[(2R)-2-methylpiperazin-1-yl]carbonyl}imidazo[1,2-a]pyridine-5-carboxamide]

pIC50 [2]: > 5.70
SMILES: CC(C)[C@@H]1CNCCN1C(=O)Cc1cn2c(C(=O)NC[C@@H]3CC[C@@H]4C[C@H]3C4(C)C)cccc2n1 [Compound 570, N-{[(1R,2R,5R)-6,6-dimethylbicyclo[3.1.1]hept-2-yl]methyl}-2-{2-[(2R)-2-isopropylpiperazin-1-yl]-2-oxoethyl}imidazo[1,2-a]pyridine-5-carboxamide]

pIC50 [4]: > 5.70
SMILES: CC1(C)C2CC[C@@H](CNC(=O)c3cccc4nc(CN5CC[C@@H](N)C5)cn34)C1C2 (stereo partly drawn) [Compound 249, 2-{[(3R)-3-aminopyrrolidin-1-yl]methyl}-N-{[(2R)-6,6-dimethylbicyclo[3.1.1]hept-2-yl]methyl}imidazo[1,2-a]pyridine-5-carboxamide]

pIC50 [4]: > 5.70
SMILES: C/C(CCc1cn2c(C(=O)NCC34CC5CC(CC(C5)C3)C4)cccc2n1)=N\O [Compound 354, N-(adamantan-1-ylmethyl)-2-[(3E)-3-(hydroxyimino)butyl] imidazo[1,2-a]pyridine-5-carboxamide]
